Columns and labels:
TLR2 [1] = test: qPCR of TLR2 mRNA in cultured keratinocytes; assay type: cell-based, human; conditions: 1,25D3 100 nM, keratinocyte monolayers, 24 hours
Description: Cell culture and stimuli. Human keratinocytes were grown in serum-free EpiLife® cell culture media (Cascade Biologics; Portland, Oreg.) containing 0.06 mM Ca2+ and 1× EpiLife® defined growth supplement (EDGS) at 37° C. under standard tissue culture conditions. Stock cultures were maintained for up to five passages in this media with the addition of 50 U/mL penicillin and 50 μg/mL streptomycin. HaCaT keratinocytes were cultured in DMEM (Sigma, St. Louis, Mo.) with 10% FCS. Cells at 50-70% confluence were stimulated in fresh medium after preincubation with 1,25(OH)2 vitamin D3 (1,25D3; 0.1-100 nM, 4-24 h; Sigma). Alternatively, NHEK were stimulated in the presence of 1,25D3 (0.1-100 nM). Stimuli included TLR2,6 ligands Malp-2 (0.001-0.5 μg/ml; Alexis Biochemicals, Carlsbad, Calif.), FSL-1 (1-2 μg/ml, Invivogen, San Diego, Calif.) and zymosan (50 μg/ml; Invivogen), as well as flagellin (50 ng/ml; Alexis), LPS (1 μg/ml; Sigma), lipoteichoic acid (LTA; 10 μg/ml; Sigma), 19 kDA lipopeptide (10 μg/ml, a kind gift from S. Krutzik, Division of Dermatology, UCLA), CpG DNA (10 μg/ml; Sigma), Ca2+ (1.7 mM), LPS (1 μg/ml; Sigma), TNFα (20 ng/ml; Chemicon Temecula, Calif.) and TGFβ1 (0.1-1 μg/ml; R&D Systems, Minneapolis, Minn.). A TLR2 blocking antibody (αTLR2; clone TL2.1, 5 μg/ml, eBioscience, San Diego, Calif.) was utilized to investigate the role of TLR2 signaling. Furthermore, keratinocytes were pretreated with a vitamin D receptor antagonist (VDR-antagonist ZK159222 Schering AG; 10^-7M) or the CYP inhibitor itraconazole (ITRA; 10^-7M) before stimulation with TGFβ in the presence of 25OH vitamin D3 (25D3, 10 nM, Sigma).
Real-time RT-PCR (qPCR). RNA was extracted from cells, epidermal constructs or tissue using Trizol® and 1 μg RNA was reverse transcribed using iScript® (BioRad, Hercules, Calif.). Expression of cathelicidin and GAPDH was analysed by real-time RT-PCR. Predeveloped Taqman® assay probes (ABI, Foster City, Calif.) were used for the analyses of the expression of CYP24A1 (24-hydroxylase), CYP27B1 (1α-hydroxylase), CD14, CD36, TLR1, TLR2, TLR4, TLR6 and murine CD14. All analyses were performed in triplicate from 2-5 independent experiments in an ABI Prism® 7000 Sequence Detection System. Fold induction relative to the vehicle treated control in in vitro experiments was calculated using the comparative Ct method, where ΔΔCt is ΔCt(stimulant)-ΔCt(vehicle), ΔCt is Ct(gene)-Ct(GAPDH) and Ct is the cycle at which an arbitrary detection threshold is crossed. For quantification of transcript abundance in tissue samples target gene expression was normalized to GAPDH and compared to non-treated or non-injured skin.

CYP24A1 = test: qPCR of CYP24A1 mRNA in cultured keratinocytes; assay type: cell-based, human; conditions: 1,25D3 10^−8M, 24 hours
Description: (§1) Cell culture and stimuli. Human keratinocytes were grown in serum-free EpiLife® cell culture media (Cascade Biologics; Portland, Oreg.) containing 0.06 mM Ca2+ and 1× EpiLife® defined growth supplement (EDGS) at 37° C. under standard tissue culture conditions. Stock cultures were maintained for up to five passages in this media with the addition of 50 U/mL penicillin and 50 μg/mL streptomycin. HaCaT keratinocytes were cultured in DMEM (Sigma, St. Louis, Mo.) with 10% FCS. Cells at 50-70% confluence were stimulated in fresh medium after preincubation with 1,25(OH)2 vitamin D3 (1,25D3; 0.1-100 nM, 4-24 h; Sigma). Alternatively, NHEK were stimulated in the presence of 1,25D3 (0.1-100 nM). […]
(§2) Real-time RT-PCR (qPCR). […] Expression of cathelicidin and GAPDH was analysed by real-time RT-PCR. […] Fold induction relative to the vehicle treated control in in vitro experiments was calculated using the comparative Ct method, where ΔΔCt is ΔCt(stimulant)-ΔCt(vehicle), ΔCt is Ct(gene)-Ct(GAPDH) and Ct is the cycle at which an arbitrary detection threshold is crossed. For quantification of transcript abundance in tissue samples target gene expression was normalized to GAPDH and compared to non-treated or non-injured skin.

[2] = test system: Other TLRs and the TLR coreceptor CD36; test: qPCR of other TLRs and CD36 in cultured keratinocytes; assay type: cell-based; conditions: cultured human keratinocytes exposed to 1,25D3
Description: as §1, §2

TLR2 protein = test: Western blot of keratinocyte extracts; assay type: cell-based, human; conditions: 1,25D3 100 nM, monolayer keratinocyte extracts
Description: Western Blot. Primary keratinocytes were stimulated with 1,25D3 (100 nM) or the vehicle for 24 hours and subsequently lysed in ice-cold lysis buffer (1% Triton-X in PBS containing proteinase inhibitors). After centrifugation, equal amounts of protein were mixed with loading buffer (0.25M Tris HCL, 10% SDS, 10% glycerol, 5% β-mercaptoethanol) and loaded onto a 10% Tris-Tricine gel (GeneMate, Kaysville, Utah). After separation, proteins were blotted onto a PVDF membrane (Millipore, Billerica, Mass.) and blocked in 5% milk (BioRad) in TBS 0.1% Tween20 for 1 h at RT. After washings in TBS 0.1% Tween20, membranes were stained with a rabbit polyclonal anti-CD14 (Abcam, Cambridge, Mass.) or an anti TLR2 antibody (eBioscience), washed again in TBS 0.1% Tween20 and reprobed with a HRP-coupled goat anti-rabbit antibody (DakoCytomation, Glostrup, Denmark). Stained protein was visualized using the Western Lightning® system (Perkin Elmer, Boston, Mass.).

TLR2 [3] = test: Topical treatment of healthy volunteers' skin, TLR2 immunostaining; assay type: in vivo, human; conditions: topical 1,25D3 1.0 mM once applied, 4 days, versus vehicle-treated contralateral skin
Description: Patients and treatments. Human skin wounds were collected following informed consent by inducing 5 mm full-thickness wounds in volunteers (n=5) under aseptic conditions with local anesthesia as described. At 24 hours after incision, 4 mm punch biopsies were taken from the site of injury and immediately fixed in formalin for immunostaining or frozen in liquid N2 for subsequent RNA isolation. Intact skin from healthy volunteers served as control (n=4). To examine the effects of topical 1,25D3, healthy skin of volunteers (n=7) was treated once topically with 1,25D3 (1.0 mM) and left under occlusion for 4 days. Vehicle treated contralateral skin served as a control. After treatment, skin biopsies were obtained from both sites, fixed in formalin 10% and embedded in paraffin for immunostaining. All treatments and sample acquisitions, including skin biopsies, were approved by the committees on investigations involving human subjects.
Immunostaining. […] Nuclei were detected with DAPI. After subsequent washings with PBS slides, were mounted in ProLong Anti-Fade reagent (Molecular Probes, Eugene, Oreg.) and evaluated with an Olympus BX41 microscope (Olympus, Melville, N.Y.). […]
NaOH, pH6.0). […] Sections were washed in PBS and detected with biotinylated secondary antibodies (Vector Laboratories, Burlingame, Calif.) and diaminobenzidine substrate (Sigma) per manufacturers' instructions.

For `C=C1/C(=C\C=C2/CCC[C@]3(C)[C@@H]([C@H](C)CCCC(C)(C)O)CC[C@@H]23)C[C@@H](O)C[C@@H]1O` [1,25D3, 1,25(OH)2 vitamin D3], the “TLR2 mRNA expression” value (TLR2 [1]) was “increases expression”, the CYP24A1 transcript abundance (CYP24A1) was “strongly upregulated” and the “expression of other TLRs and CD36” value [2] was “remained unchanged”. The “TLR2 protein expression (Western Blot)” value (TLR2 protein) was “increases expression” and the “TLR2 staining intensity in skin sections” value (TLR2 [3]) was “Staining intensity increased”.
